The target of assay [1] is T1, Sodium/nucleoside cotransporter 2 (Homo sapiens, UniProt O43868).
T1 sequence (O43868 whole entry): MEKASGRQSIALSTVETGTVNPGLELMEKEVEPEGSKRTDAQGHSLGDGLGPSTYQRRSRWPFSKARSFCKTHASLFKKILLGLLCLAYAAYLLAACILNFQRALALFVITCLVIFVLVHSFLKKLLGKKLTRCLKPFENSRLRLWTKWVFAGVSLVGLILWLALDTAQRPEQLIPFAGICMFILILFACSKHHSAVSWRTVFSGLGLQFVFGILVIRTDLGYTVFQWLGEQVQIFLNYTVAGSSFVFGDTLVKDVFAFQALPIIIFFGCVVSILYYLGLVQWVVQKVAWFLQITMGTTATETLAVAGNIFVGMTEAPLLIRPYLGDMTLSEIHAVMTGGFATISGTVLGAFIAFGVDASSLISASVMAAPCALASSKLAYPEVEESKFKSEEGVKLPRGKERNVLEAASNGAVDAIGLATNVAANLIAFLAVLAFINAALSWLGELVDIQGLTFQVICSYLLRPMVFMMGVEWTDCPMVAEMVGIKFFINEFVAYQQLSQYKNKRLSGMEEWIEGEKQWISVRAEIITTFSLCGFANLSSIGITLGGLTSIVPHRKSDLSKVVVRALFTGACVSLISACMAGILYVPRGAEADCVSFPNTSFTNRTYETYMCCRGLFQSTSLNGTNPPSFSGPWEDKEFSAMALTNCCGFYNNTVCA
As to the kind of experiment: Inhibition of human CNT2 expressed in COS7 cells assessed as reduction in sodium-dependent [14C]-inosine uptake in presence of Na+ by liquid scintillation counting method. The assay is classed as cell-based, COS-7.

Assay [2] deals with T2, Sodium/nucleoside cotransporter 2 (Homo sapiens) (UniProt O43868).
T2 sequence (whole entry): T1 sequence (O43868 whole entry)
The experiment in a line: Inhibition of human CNT2 expressed in COS7 cells assessed as reduction in sodium-dependent [14C]-inosine uptake at 100 uM in presence of Na+ by liquid scintillation counting method. Particulars: COS-7. The assay is classed as cell-based.

Assay [3] addresses T2, Sodium/nucleoside cotransporter 2 (Homo sapiens). The experiment in a line: Inhibition of human CNT2 expressed in COS7 cells assessed as reduction in sodium-dependent [14C]-inosine uptake at 1000 uM in presence of Na+ by liquid scintillation counting method. The assay is classed as cell-based. The settings on record: COS-7.
Assay [4] shares this target. The experiment in a line: Potency index, ratio of IC50 for 2'-deoxy-5-fluorouridine to IC50 for test compound against human CNT2 expressed in COS7 cells by sodium-dependent [14C]-inosine uptake assay. The assay is classed as cell-based. The settings on record: COS-7.
Assay [5] has the same target. The experiment in a line: Potency index, ratio of IC50 for phlorizin to IC50 for test compound against human CNT2 expressed in COS7 cells by sodium-dependent [14C]-inosine uptake assay. The settings on record: COS-7. The assay is classed as cell-based.
The target is the same in assay [6]. The experiment in a line: Potency index, ratio of IC50 for 7,8,3'-trihydroxyflavone to IC50 for test compound against human CNT2 expressed in COS7 cells by sodium-dependent [14C]-inosine uptake assay. The assay is classed as cell-based. Particulars: COS-7.

pIC50: −log10 of the molar value.

For `Cc1cccc(CNc2nc3c(N)ncnc3n2[C@@H]2O[C@H](CO)[C@@H](O)[C@H]2O)c1`, the pIC50 in assay [1] is 4.72. For the molecule `Nc1ncnc2c1nc(CCc1ccccc1)n2[C@@H]1O[C@H](CO)[C@@H](O)[C@H]1O`, in assay [2], the inhibition was under 5%.

Regarding `COc1ccc(CNc2nc3c(N)ncnc3n2[C@@H]2O[C@H](CO)[C@@H](O)[C@H]2O)cc1`, the pIC50 in assay [1] was 4.44. As for `Nc1ncnc2c1ncn2[C@@H]1O[C@H](COC(=O)OCc2ccccc2)[C@@H](O)[C@H]1O`, in assay [1], the pIC50 is under 4.00. The same measure, in the same setting: for `Nc1ncnc2c1nc(NCc1ccccc1Cl)n2[C@@H]1O[C@H](CO)[C@@H](O)[C@H]1O` the value was 5.24. Turning to `O=C(CCc1ccc(O)cc1)c1c(O)cc(O)cc1O[C@@H]1O[C@H](CO)[C@@H](O)[C@H](O)[C@H]1O` [PHLORIZIN], the negative-log IC50 (pIC50) in assay [1] was under 3.00. The inhibition in assay [2] is 14%; in assay [3], under 50%. Consider `Cc1ccc(CNc2nc3c(N)ncnc3n2[C@@H]2O[C@H](CO)[C@@H](O)[C@H]2O)cc1`, for which the pIC50 in assay [1] was 4.96. On the same count and under the same terms, to `Nc1ncnc2c1nc(NCc1ccc3ccccc3c1)n2[C@@H]1O[C@H](CO)[C@@H](O)[C@H]1O` belongs 5.28.

As to `Nc1ncnc2c1nc(NCCc1ccccc1)n2[C@@H]1O[C@H](CO)[C@@H](O)[C@H]1O`, in assay [1], the negative-log IC50 (pIC50) is 3.63. Further, the inhibition in assay [2] is 39%.

For `Nc1ncnc2c1nc(NCc1ccccc1)n2[C@@H]1O[C@H](CO)[C@@H](O)[C@H]1O`, the negative-log IC50 (pIC50) in assay [1] was 4.28. Moreover, in assay [2], the inhibition is 58%.

As for `Nc1ncnc2c1nc(Nc1ccccc1)n2[C@@H]1O[C@H](CO)[C@@H](O)[C@H]1O`, the pIC50 in assay [1] is 3.54. In assay [2], the inhibition was 36%.

Regarding `Nc1ncnc2c1nc(OCc1ccccc1)n2[C@@H]1O[C@H](CO)[C@@H](O)[C@H]1O`, in assay [2], the inhibition is under 5%.

As for `Nc1ncnc2c1nc(NCCCc1ccccc1)n2[C@@H]1O[C@H](CO)[C@@H](O)[C@H]1O`, the negative logarithm of the IC50 (pIC50) in assay [1] is 3.27. Also, the inhibition in assay [2] amounted to 26%. As to `Nc1ncnc2c1nc(SCc1ccccc1)n2[C@@H]1O[C@H](CO)[C@@H](O)[C@H]1O`, in assay [2], the inhibition was under 5%. In the case of `Nc1ncnc2c1nc(NCc1cccc3ccccc13)n2[C@@H]1O[C@H](CO)[C@@H](O)[C@H]1O`, the negative logarithm of the IC50 (pIC50) in assay [1] was 5.24. Regarding `Nc1ncnc2c1nc(NCc1cccc(Cl)c1)n2[C@@H]1O[C@H](CO)[C@@H](O)[C@H]1O`, the pIC50 in assay [1] was 5.27. For the molecule `Nc1ncnc2c1ncn2[C@@H]1O[C@H](COC(=O)Cc2ccccc2)[C@@H](O)[C@H]1O`, in assay [1], the pIC50 is under 4.00.

Turning to `COc1cccc(CNc2nc3c(N)ncnc3n2[C@@H]2O[C@H](CO)[C@@H](O)[C@H]2O)c1`, the negative-log IC50 (pIC50) in assay [1] was 4.89. For the molecule `Nc1ncnc2c1nc(NCc1ccc(Cl)cc1)n2[C@@H]1O[C@H](CO)[C@@H](O)[C@H]1O`, the pIC50 in assay [1] is 4.96. `C[C@@H](Nc1nc2c(N)ncnc2n1[C@@H]1O[C@H](CO)[C@@H](O)[C@H]1O)c1ccccc1`: the inhibition in assay [2] is under 5%. Regarding `O=c1[nH]c(=O)n([C@H]2C[C@H](O)[C@@H](CO)O2)cc1F` [FLOXURIDINE], the pIC50 in assay [1] is under 3.00. The inhibition in assay [2] was 17%; in assay [3], under 50%. For the molecule `CCNC(=O)OC[C@H]1O[C@@H](n2cnc3c(N)ncnc32)[C@H](O)[C@@H]1O`, the negative logarithm of the IC50 (pIC50) in assay [1] is under 4.00. For `CC(=O)OC[C@H]1O[C@@H](n2cnc3c(N)ncnc32)[C@H](O)[C@@H]1O`, the negative logarithm of the IC50 (pIC50) in assay [1] is under 4.00. For `CCC(=O)OC[C@H]1O[C@@H](n2cnc3c(N)ncnc32)[C@H](O)[C@@H]1O`, the pIC50 in assay [1] was under 4.00. On the same count and under the same terms, to `CCCCCOC(=O)OC[C@H]1O[C@@H](n2cnc3c(N)ncnc32)[C@H](O)[C@@H]1O` belongs under 4.00.

Regarding `CN(Cc1ccccc1)c1nc2c(N)ncnc2n1[C@@H]1O[C@H](CO)[C@@H](O)[C@H]1O`, the inhibition in assay [2] was under 5%.

In the case of `Nc1ncnc2c1nc(NCc1ccc(-c3ccccc3)cc1)n2[C@@H]1O[C@H](CO)[C@@H](O)[C@H]1O`, the negative-log IC50 (pIC50) in assay [1] was 6.19. For the same molecule, the Ratio IC50 in assay [4], in assay [5] and in assay [6] was 1500 throughout.

With `Cc1ccccc1CNc1nc2c(N)ncnc2n1[C@@H]1O[C@H](CO)[C@@H](O)[C@H]1O`, the pIC50 in assay [1] was 4.19.

`CCOC(=O)OC[C@H]1O[C@@H](n2cnc3c(N)ncnc32)[C@H](O)[C@@H]1O`: the pIC50 in assay [1] is under 4.00. In the case of `C[C@H](Nc1nc2c(N)ncnc2n1[C@@H]1O[C@H](CO)[C@@H](O)[C@H]1O)c1ccccc1`, the inhibition in assay [2] is under 5%.

As to `CCCCCC(=O)OC[C@H]1O[C@@H](n2cnc3c(N)ncnc32)[C@H](O)[C@@H]1O`, the negative logarithm of the IC50 (pIC50) in assay [1] is under 4.00. Still for that read-out and setting: for `COC(=O)OC[C@H]1O[C@@H](n2cnc3c(N)ncnc32)[C@H](O)[C@@H]1O` the value was under 4.00; for `Nc1ncnc2c1nc(NCc1cccc(-c3ccccc3)c1)n2[C@@H]1O[C@H](CO)[C@@H](O)[C@H]1O`, 4.68.

In the case of `COc1ccccc1CNc1nc2c(N)ncnc2n1[C@@H]1O[C@H](CO)[C@@H](O)[C@H]1O`, the pIC50 in assay [1] was under 4.00. As for `CNC(=O)OC[C@H]1O[C@@H](n2cnc3c(N)ncnc32)[C@H](O)[C@@H]1O`, in assay [1], the negative-log IC50 (pIC50) was under 4.00.

As for `Nc1ncnc2c1nc(NCc1ccccc1-c1ccccc1)n2[C@@H]1O[C@H](CO)[C@@H](O)[C@H]1O`, the negative logarithm of the IC50 (pIC50) in assay [1] was under 4.00. In the case of `O=c1cc(-c2cccc(O)c2)oc2c(O)c(O)ccc12`, the pIC50 in assay [1] is under 3.00. Besides, the inhibition in assay [2] was under 5%; in assay [3], under 50%. Consider `CCCCCNC(=O)OC[C@H]1O[C@@H](n2cnc3c(N)ncnc32)[C@H](O)[C@@H]1O`, for which the negative logarithm of the IC50 (pIC50) in assay [1] is under 4.00. With `Nc1ncnc2c1ncn2[C@@H]1O[C@H](COC(=O)NCc2ccccc2)[C@@H](O)[C@H]1O`, in assay [1], the pIC50 is under 4.00.

Source of the values: ChEMBL document CHEMBL3425401, “Identification of 8-aminoadenosine derivatives as a new class of human concentrative nucleoside transporter 2 inhibitors” (ACS Med Chem Lett, 2015).
